This note sets out measurements from ChEMBL document CHEMBL3132769, “Fragment growing to retain or alter the selectivity of anchored kinase hinge-binding fragments” (Medchemcomm, 2014).

Broadly, the inhibition is the relative decrease from the control value, in per cent.

Test [1] addresses T1, Serine/threonine-protein kinase Sgk1 (Homo sapiens) (UniProt O00141).
T1 sequence (whole entry): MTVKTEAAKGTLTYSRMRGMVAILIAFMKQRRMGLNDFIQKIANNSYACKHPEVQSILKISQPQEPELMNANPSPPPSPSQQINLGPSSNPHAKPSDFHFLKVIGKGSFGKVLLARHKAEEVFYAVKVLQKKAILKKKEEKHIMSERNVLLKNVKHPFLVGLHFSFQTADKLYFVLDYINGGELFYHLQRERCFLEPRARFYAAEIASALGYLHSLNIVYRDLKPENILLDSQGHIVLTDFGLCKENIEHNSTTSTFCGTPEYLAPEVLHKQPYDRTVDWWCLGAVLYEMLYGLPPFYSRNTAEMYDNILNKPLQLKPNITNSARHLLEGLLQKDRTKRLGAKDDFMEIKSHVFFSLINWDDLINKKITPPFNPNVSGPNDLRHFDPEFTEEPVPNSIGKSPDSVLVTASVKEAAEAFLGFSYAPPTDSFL
Kind of test: Inhibition of human truncated SGK1 expressed in baculovirus assessed as substrate phosphorylation using fluorescence-labelled peptides as substrate at 8 uM after 90 mins by microfluidic peptide phosphorylation assay.

The target of test [2] is Platelet-derived growth factor receptor alpha (Homo sapiens) (UniProt P16234). The test can be described thus: Inhibition of human PDGFR alpha catalytic domain expressed in baculovirus assessed as substrate phosphorylation using fluorescence-labelled peptides as substrate at 0.06 uM after 90 mins by microfluidic peptide phosphorylation assay.
Test [3] concerns the target MAP kinase-activated protein kinase 2 (Homo sapiens) (UniProt P49137). The test can be described thus: Inhibition of human full length MAPKAPK2 expressed in baculovirus assessed as substrate phosphorylation using fluorescence-labelled peptides as substrate at 9 uM after 90 mins by microfluidic peptide phosphorylation assay.
Test [4] deals with T1, Serine/threonine-protein kinase Sgk1 (Homo sapiens). The test can be described thus: Inhibition of human truncated SGK1 expressed in baculovirus assessed as substrate phosphorylation using fluorescence-labelled peptides as substrate at 9 uM after 90 mins by microfluidic peptide phosphorylation assay.
Test [5] concerns the target Tyrosine-protein kinase Fyn (Homo sapiens) (UniProt P06241). Kind of test: Inhibition of human full length FYN expressed in baculovirus assessed as substrate phosphorylation using fluorescence-labelled peptides as substrate at 9 uM after 90 mins by microfluidic peptide phosphorylation assay.
For test [6], the target named is Ribosomal protein S6 kinase alpha-2 (Homo sapiens) (UniProt Q15349). The test can be described thus: Inhibition of human full length RSK3 expressed in baculovirus assessed as substrate phosphorylation using fluorescence-labelled peptides as substrate at 2 uM after 90 mins by microfluidic peptide phosphorylation assay.
Test [7] addresses T2, Serine/threonine-protein kinase BRSK1 (Homo sapiens) (UniProt Q8TDC3).
T2 sequence (whole entry): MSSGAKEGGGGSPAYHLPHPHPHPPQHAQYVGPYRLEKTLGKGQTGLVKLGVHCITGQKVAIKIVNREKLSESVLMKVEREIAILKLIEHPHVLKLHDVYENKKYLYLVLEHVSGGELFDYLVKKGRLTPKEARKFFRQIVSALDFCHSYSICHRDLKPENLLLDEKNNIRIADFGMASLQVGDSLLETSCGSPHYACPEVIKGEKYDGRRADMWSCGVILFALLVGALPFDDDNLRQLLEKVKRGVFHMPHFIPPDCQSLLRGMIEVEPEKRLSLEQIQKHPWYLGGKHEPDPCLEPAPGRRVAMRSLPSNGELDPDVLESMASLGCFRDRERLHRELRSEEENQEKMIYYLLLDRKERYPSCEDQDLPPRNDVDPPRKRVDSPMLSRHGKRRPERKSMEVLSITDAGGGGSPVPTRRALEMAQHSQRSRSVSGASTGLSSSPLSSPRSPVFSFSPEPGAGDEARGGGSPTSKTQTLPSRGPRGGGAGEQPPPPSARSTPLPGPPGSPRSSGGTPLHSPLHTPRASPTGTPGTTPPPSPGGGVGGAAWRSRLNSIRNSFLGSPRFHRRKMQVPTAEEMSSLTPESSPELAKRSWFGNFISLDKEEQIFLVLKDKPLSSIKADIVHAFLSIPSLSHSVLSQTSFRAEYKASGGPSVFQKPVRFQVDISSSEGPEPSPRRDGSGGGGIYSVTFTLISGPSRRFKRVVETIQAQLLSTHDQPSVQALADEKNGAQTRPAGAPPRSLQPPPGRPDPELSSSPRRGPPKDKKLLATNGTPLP
Kind of test: Inhibition of human full length BRSK1 expressed in baculovirus assessed as substrate phosphorylation using fluorescence-labelled peptides as substrate at 2 uM after 90 mins by microfluidic peptide phosphorylation assay.

Test [8] addresses RAF proto-oncogene serine/threonine-protein kinase (Homo sapiens) (UniProt P04049). The test can be described thus: Inhibition of human truncated c-Raf expressed in baculovirus assessed as substrate phosphorylation using fluorescence-labelled peptides as substrate at 95 uM after 90 mins by microfluidic peptide phosphorylation assay.
Test [9] has as its target T3, Inhibitor of nuclear factor kappa-B kinase subunit beta (Homo sapiens) (UniProt O14920).
T3 sequence (whole entry): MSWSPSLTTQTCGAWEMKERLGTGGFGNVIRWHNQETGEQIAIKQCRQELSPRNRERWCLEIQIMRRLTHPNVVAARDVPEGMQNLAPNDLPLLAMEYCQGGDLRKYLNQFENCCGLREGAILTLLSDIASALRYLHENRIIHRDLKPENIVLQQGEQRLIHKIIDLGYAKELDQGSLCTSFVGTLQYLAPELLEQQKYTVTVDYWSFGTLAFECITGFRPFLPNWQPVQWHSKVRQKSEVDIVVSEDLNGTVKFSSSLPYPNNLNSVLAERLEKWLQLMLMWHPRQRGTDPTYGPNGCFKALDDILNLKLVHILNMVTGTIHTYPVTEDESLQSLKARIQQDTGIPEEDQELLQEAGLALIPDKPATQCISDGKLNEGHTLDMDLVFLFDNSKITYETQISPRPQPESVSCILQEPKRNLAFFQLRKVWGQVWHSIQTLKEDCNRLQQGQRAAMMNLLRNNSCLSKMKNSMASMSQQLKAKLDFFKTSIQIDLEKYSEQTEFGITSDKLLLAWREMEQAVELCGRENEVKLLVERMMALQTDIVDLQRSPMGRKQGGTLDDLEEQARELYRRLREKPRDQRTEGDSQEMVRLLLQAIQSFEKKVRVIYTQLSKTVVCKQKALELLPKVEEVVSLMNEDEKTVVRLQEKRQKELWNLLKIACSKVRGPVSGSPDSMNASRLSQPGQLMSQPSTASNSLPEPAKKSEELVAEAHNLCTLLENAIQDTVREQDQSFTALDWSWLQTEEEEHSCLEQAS
The test can be described thus: Inhibition of human full length IKK beta expressed in baculovirus assessed as substrate phosphorylation using fluorescence-labelled peptides as substrate at 1000 uM after 90 mins by microfluidic peptide phosphorylation assay.

Tyrosine-protein kinase Fyn (Homo sapiens), sequence (P06241 2-537 limits assumed): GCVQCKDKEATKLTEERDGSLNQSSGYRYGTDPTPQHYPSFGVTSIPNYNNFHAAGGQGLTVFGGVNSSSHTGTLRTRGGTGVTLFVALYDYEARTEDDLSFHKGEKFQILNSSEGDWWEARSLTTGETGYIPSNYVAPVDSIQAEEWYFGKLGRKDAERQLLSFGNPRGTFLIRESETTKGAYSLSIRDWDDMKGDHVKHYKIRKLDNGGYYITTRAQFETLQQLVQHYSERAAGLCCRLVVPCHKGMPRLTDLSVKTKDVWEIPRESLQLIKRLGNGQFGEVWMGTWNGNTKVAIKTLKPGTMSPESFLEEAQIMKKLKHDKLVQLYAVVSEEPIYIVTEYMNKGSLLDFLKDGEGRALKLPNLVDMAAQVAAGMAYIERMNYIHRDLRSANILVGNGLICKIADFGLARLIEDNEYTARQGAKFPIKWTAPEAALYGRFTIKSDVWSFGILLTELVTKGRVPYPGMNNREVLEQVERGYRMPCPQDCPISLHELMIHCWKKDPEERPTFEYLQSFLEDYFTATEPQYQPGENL
Ribosomal protein S6 kinase alpha-2 (Homo sapiens), sequence (Q15349 whole entry): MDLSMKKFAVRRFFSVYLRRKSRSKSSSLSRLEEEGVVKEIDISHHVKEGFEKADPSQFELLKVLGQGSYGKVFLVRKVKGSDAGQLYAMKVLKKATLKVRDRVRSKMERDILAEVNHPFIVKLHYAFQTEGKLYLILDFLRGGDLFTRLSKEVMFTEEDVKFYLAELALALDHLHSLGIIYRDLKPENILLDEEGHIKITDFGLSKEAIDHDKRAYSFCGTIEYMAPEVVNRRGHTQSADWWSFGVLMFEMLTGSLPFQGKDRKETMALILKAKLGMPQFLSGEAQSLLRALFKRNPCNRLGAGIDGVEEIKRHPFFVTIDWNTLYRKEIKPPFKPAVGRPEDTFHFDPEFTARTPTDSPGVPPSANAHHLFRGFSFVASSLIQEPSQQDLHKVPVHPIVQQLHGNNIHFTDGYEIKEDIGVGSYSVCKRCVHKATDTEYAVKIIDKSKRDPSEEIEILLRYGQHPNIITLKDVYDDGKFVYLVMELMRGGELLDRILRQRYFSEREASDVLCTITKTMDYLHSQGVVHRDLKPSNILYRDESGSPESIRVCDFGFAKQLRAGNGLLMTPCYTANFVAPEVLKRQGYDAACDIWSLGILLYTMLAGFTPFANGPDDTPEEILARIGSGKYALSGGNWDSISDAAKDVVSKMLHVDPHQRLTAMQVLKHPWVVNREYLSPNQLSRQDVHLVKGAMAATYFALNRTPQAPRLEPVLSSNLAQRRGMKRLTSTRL
MAP kinase-activated protein kinase 2 (Homo sapiens), sequence (P49137 whole entry, looked up, the tested form may be a part): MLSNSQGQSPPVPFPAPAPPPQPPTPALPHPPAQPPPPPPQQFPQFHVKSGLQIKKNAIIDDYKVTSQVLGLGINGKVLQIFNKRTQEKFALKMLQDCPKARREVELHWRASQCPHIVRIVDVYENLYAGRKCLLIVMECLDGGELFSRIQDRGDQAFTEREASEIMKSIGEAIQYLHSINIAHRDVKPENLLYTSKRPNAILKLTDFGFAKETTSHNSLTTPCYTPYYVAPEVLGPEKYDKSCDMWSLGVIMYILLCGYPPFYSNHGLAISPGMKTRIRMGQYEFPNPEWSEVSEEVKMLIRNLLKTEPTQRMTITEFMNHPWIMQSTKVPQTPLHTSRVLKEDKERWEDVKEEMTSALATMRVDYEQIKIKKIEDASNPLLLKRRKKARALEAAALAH
RAF proto-oncogene serine/threonine-protein kinase (Homo sapiens), sequence (P04049 whole entry, the tested form may be a part): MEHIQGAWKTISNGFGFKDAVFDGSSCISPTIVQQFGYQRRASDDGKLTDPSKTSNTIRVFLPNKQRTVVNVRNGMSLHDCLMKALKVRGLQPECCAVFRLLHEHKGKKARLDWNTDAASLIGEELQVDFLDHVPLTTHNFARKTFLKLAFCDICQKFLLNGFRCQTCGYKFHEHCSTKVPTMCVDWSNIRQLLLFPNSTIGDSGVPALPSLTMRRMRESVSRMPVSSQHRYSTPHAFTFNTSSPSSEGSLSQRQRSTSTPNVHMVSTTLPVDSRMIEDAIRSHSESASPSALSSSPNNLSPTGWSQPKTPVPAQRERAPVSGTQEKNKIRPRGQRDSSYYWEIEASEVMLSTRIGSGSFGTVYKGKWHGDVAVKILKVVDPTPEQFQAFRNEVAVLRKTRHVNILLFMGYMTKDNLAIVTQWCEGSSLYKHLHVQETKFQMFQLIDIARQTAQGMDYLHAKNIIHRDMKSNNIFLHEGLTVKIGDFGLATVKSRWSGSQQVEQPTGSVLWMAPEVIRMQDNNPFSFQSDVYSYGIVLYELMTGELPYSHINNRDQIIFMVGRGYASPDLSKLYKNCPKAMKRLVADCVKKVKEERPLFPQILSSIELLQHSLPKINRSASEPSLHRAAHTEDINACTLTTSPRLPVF
Platelet-derived growth factor receptor alpha (Homo sapiens), sequence (P16234 whole entry, the tested form may be a part): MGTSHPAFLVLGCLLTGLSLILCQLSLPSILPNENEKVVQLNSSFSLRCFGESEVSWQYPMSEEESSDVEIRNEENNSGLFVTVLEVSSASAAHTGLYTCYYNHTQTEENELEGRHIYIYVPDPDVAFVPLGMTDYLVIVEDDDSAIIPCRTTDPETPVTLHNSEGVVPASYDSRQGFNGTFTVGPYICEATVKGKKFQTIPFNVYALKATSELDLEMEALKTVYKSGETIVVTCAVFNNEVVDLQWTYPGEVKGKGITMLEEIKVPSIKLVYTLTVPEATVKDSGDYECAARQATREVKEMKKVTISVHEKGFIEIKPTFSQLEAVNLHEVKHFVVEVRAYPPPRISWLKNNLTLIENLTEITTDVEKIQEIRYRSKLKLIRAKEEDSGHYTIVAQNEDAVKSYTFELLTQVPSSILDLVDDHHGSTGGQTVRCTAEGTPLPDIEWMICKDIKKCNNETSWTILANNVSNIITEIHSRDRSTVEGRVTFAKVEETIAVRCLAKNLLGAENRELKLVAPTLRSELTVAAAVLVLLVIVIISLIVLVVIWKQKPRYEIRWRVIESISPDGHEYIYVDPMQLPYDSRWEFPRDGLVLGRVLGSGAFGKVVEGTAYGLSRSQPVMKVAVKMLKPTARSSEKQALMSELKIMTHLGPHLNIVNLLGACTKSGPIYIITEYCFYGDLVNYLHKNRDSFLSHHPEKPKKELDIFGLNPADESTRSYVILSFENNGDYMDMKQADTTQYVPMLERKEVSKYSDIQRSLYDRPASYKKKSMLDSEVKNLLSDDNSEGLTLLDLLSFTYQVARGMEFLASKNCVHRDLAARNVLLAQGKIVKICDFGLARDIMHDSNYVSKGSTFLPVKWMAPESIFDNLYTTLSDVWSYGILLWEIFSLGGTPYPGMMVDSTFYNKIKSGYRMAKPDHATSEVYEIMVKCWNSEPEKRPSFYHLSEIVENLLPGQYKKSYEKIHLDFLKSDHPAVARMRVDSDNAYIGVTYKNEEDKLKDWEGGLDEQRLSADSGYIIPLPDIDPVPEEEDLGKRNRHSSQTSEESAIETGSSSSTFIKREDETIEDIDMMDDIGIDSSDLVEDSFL

Take `NCC1CCN(c2ncnc3[nH]ccc23)CC1`: the inhibition in test [1] was 59%. As to `NC1(Cc2ccc(Cl)cc2)CCN(c2ncnc3[nH]ccc23)CC1`, in test [2], the inhibition was 0%. `NCC1CN(c2ncnc3[nH]c4cnccc4c23)CCO1` (centres undefined): the inhibition in [3] was determined as 19.5%; in test [4], 51%; in [5], 29.5%.

For `NC1CCN(c2ncnc3[nH]ccc23)CC1`, the inhibition in test [6] worked out at 0%; in test [7], 14.5%. Consider `NCCc1ccc(-c2ncnc3[nH]cnc23)cc1`, for which the inhibition in test [8] worked out at 39.5%. Consider `c1cnc2[nH]ccc2c1`, for which the inhibition in test [9] is 95.5%.
